experiment: Human HepG2 cell viability assay in 384 well format; assay type: toxicity, cell-based; design: dose 125 nL, time 70.5 hour; cytotoxicity at 70.5 h: concentration not given beside the values; details: HepG2 cells, read-out: Inhibition

Compound	cytotoxicity at 70.5 h [%]
CC(Cn1cccn1)NC(=O)NCc1ccccn1 (configuration not stated)	-3.27
O=C(Cn1ccc2ccc(Cl)cc21)/N=c1\[nH]nc(C2CCCO2)s1 (configuration not stated)	-2.63
NC(=O)C1(Cc2ccc(-c3ccccc3)cc2)CCNC1 (configuration not stated)	36.2
Fc1ccc([C@@H]2COC[C@H]2NCc2cccc(F)c2)cc1	-3.65
Cc1c(CCC(=O)Nc2ccc(Cl)cn2)cnn1C	-1.57
O=C(NC1CCCN(c2ccc(OC(F)F)cc2)C1)c1ccon1 (configuration not stated)	-1.24
CC(=O)c1c(F)cccc1NCC(O)C1CC1 (configuration not stated)	-19.1
CC(C)NC(=O)N1Cc2nccn2CC(COc2cccnc2)C1 (configuration not stated)	9.72
COCCO[C@@H]1CCN(C(=O)c2occc2C)[C@H]1Cc1cnn(C)c1	-90.5
c1cncc(CN2CCO[C@H]3[C@H](OCCN4CCCC4)CC[C@@H]32)c1	-8.38
Cn1c(=O)[nH]c(=O)c2c1nc1n2CC(c2ccc(Br)cc2)O1 (configuration not stated)	-3.88
Cc1nn(C)c(C)c1OCC(=O)NCC(O)c1ccccc1F (configuration not stated)	0.771
COc1cccc(N2CC3(CCN(C(=O)NC(C)C)C3)CC2=O)c1 (configuration not stated)	-7.02
CC(C)(C)C(=O)NC(c1nccs1)C1CCN(CC2CCCCC2)CC1 (configuration not stated)	33.7
CCn1nc(C)cc1NC(=O)CCn1nc(C)c2ccccc21	-10.1
Cc1ccccc1Oc1ncccc1CNS(C)(=O)=O	19.1
O=C(c1ccccn1)N1C[C@@H]2CC[C@H](C1)N(C(=O)CCN1CCCC1)C2	38
CCN1CCCc2cc(CN3CCc4nc(C)[nH]c(=O)c4C3)ccc21	-0.248
CCCn1nnc2c(sc3nc(N4CCOCC4)c4c(c32)CCC4)c1=O	-21.7
COc1ccccc1CNC(=O)c1[nH]ncc1Cl	6.24
CC(C)CN1CC[C@H](c2nnc(COc3ccc(F)cc3)o2)C1	-3.77
Cc1ccc2nc(CN(C)Cc3ccc(C)o3)cc(=O)n2c1	-15
CCN1CCN(C2CCN(Cc3nc(-c4ccoc4)no3)CC2)C1=O	1.49

Compound	cytotoxicity at 70.5 h [%]
Cn1ncc2c1NC(=O)CC2c1c(F)cccc1Cl (configuration not stated)	-5.11
O=C(Nc1cnn(CCN2CCOCC2)c1)c1cc(F)ccc1F	-2.44
COc1ccc(CN2CCc3nc(C4CCCCN4C)ncc3C2)cc1 (configuration not stated)	-10.4
CS(=O)(=O)NCc1nnc2n1CCN(Cc1cccs1)CC2	-4.32
COCC(=O)N1C[C@H]2CNC[C@@]2(C(=O)NCc2snnc2C)C1	-6.27
CC(C)(C)n1nc(C2CC2)cc1C(=O)NCC1(C(N)=O)CCOCC1	22.2
CC(C)(CN1CCC(Cc2cccc(C(=O)O)c2)C1)N1CCOCC1 (configuration not stated)	-9.68
COC1CCN(C(=O)Cc2csc(-c3ccc(F)cc3)n2)CC1	0.103
COc1c(C2CCCN2Cc2nnc(C3CC3)o2)c(C)nn1C (configuration not stated)	-4.73
CNC(=O)CN1CCN(C(=O)c2ccn(C)c(=O)c2)CC1	31.2
CC(O)CN1CCN(C(=O)c2cc(Cl)cc3cccnc23)CC1 (configuration not stated)	-5.43
Cc1cc(C(=O)NCCC2CCN(C)CC2)ccc1N(C)S(C)(=O)=O	-10.7
O=C(CN1CCc2onc(-c3ccccc3F)c2C1)NC1CC1	-9.25
CC(C)N(C)[C@@H]1CCN(S(C)(=O)=O)[C@H]1Cc1ccccc1	-3.3
Cc1ccc(N2C[C@H]3OCC[C@H]3[C@H](C(=O)NCc3ccco3)C2)nn1	-7.31
Cc1ccc2cnn(CCC(=O)NCc3c(C)nn(C)c3C)c2c1	-6.87
N#Cc1ccc(F)cc1Cn1cnc(C2CCC2)cc1=O	-9.04
Cc1ccc(CNC(=O)CN2CCN(CC(O)c3ccco3)CC2)cc1 (configuration not stated)	29.2
O=C1NC[C@H]2CN(Cc3ccccn3)CCN12	0.693
c1cc(CNCc2ccnc(N3CCOCC3)c2)c2c(c1)OCCO2	-9.77
CC(C)(O)c1cn(C2CCN(C(=O)CCC3CCCC3)CC2)nn1	27
Cc1ccc(C)c2c(O)cc(CN3CCC(c4nncn4C)CC3)nc12	0.0856
c1ccc(-c2cc(CN3C[C@@H]4CC[C@H](C3)N(CC3CC3)C4)on2)cc1	-6.85

Compound	cytotoxicity at 70.5 h [%]
CCc1nnc(C2Cc3ccccc3CN2Cc2nc(C3CC3)no2)o1 (configuration not stated)	-5.61
O=S1(=O)C[C@@H]2[C@H](C1)N(Cc1ccc3ccccc3c1)CCN2CC1CC1	2.29
O=C(CN1C(=O)CC2(CCCC2)C1=O)NCCc1nccs1	-14.1
Cn1ccnc1SCC(=O)NCCC1CCCO1 (configuration not stated)	31.2
O=C(N1CCOCC1)N1CCCC2(CCCNC2)C1 (configuration not stated)	8.83
COC(=O)CC1CCN(C(=O)c2ccccc2-n2nnnc2C)CC1	-12.6
COc1cc2[nH]c(=O)c(CN3CCCC3C)cc2c(OC)c1OC (configuration not stated)	-6.4
CCCn1nnnc1CSc1nccn1CC	-0.835
CC(C)N1CCO[C@H]2CN(C(=O)Cc3ccsc3)C[C@H]21	-2.31
O=C(NCC1CCOCC1)[C@@H]1CC[C@@H]2[C@@H](CCN2Cc2ccncc2)O1	-0.695
CN(C(=O)c1cccn1C)C1CCC(NC(=O)OC(C)(C)C)CC1 (configuration not stated)	-9.69
COC(=O)CCCN(C)C(c1cccnc1)c1ccc(F)cc1F (configuration not stated)	5.6
OCCn1nccc1C1CCN(CCOc2ccc(Cl)cc2)CC1	-1.15
Cc1nn(C)cc1CN1CCC(c2ncc(Cl)cc2S(C)(=O)=O)CC1	-6.84
O=C(c1ccncc1F)N1CCc2ncnc(-c3ccncc3)c2CC1	6.15
CN(C)C(=O)N1CCc2ccc(=O)[nH]c2CC1	-3.89
COc1ccc(Nc2cc(C)nc(C)n2)cc1N1CCCC1=O	-7.1
COCC(=O)N1C[C@@H](CN2CCCN(C)CC2)[C@@H](CO)C1	-4.72
CCC[C@H]1CN(CCS(C)(=O)=O)C[C@@H]1NC(=O)c1cc(CC)on1	-2.15
CCCn1cnnc1CNC1CSCCSC1	-9.24
COC1CCN(C(=O)CC2CCCC2)CC(=O)N(C)c2ccccc21 (configuration not stated)	-0.0141
CC(Cn1cncn1)NC(=O)c1cn(Cc2ccccc2F)nn1 (configuration not stated)	0.213
COCC(Nc1ncnc2sc(C(=O)O)c(C)c12)c1ccnn1C (configuration not stated)	0.588

Compound	cytotoxicity at 70.5 h [%]
Cc1csc(N2CCN(CC(=O)N3CCNC3=O)CC2C)n1 (configuration not stated)	12
N#Cc1cccnc1Oc1cc(F)c(CN2CCCC2)c(Cl)c1	-1.54
CCN1CC(CN(C)Cc2nc(-c3ccc(F)cc3)oc2C)CC1=O (configuration not stated)	4.29
c1cc(CC2CCCNC2)nc(NCCc2cnccn2)c1 (configuration not stated)	-11.1
CCc1nc(CN2CCCN(C(=O)CC(C)OC)CC2)cs1 (configuration not stated)	51.7
Cc1c(Br)cccc1C(=O)Nc1cc(C(N)=O)n(C)c1	-6.66
CC(Oc1cccc(F)c1)C(=O)N(CC(N)=O)C1CCCC1 (configuration not stated)	0.47
CN(C)c1cccc(C2CCCN2c2nc3c(cnn3C)c(=O)[nH]2)c1 (configuration not stated)	15.4
N#Cc1cccc(N2CC3(CCN(C(=O)c4ccncc4)C3)CC2=O)c1 (configuration not stated)	-5.96
Cn1ccnc1CN1C[C@@H](CN2CCC(CO)CC2)[C@@H](CO)C1	-7.99
CCN1CCCN(C(=O)c2cnc(OC(C)C)c(Cl)c2)CC1	9.31
Cn1ccc2cc(C(=O)NC3CCS(=O)(=O)C3)ccc21 (configuration not stated)	-10.9
CC(c1nc(C(C)(C)C)no1)S(=O)(=O)CC(=O)N(C)C (configuration not stated)	-6.15
c1ccc(CCN2CCCC(c3ccnc4nccn34)C2)cc1 (configuration not stated)	-1.37
CN(CCOCC(F)(F)F)CC1CCN(CCO)CC1	16.2
COCCNC(=O)[C@]12COC[C@H]1CN(C1CCOCC1)C2	10.6
COc1cccc(COCC(O)CN(C)c2ccc(C)cc2C)c1 (configuration not stated)	-0.324
Cc1ccnn1CC(=O)N(C)Cc1ccc(-n2cccn2)cc1	-7.33
COC(=O)c1ccc(C(=O)N2CCc3c(ncn3C3CC3)C2)cc1	-5.37
Cc1nn(C)c(C)c1C1COCCN1c1ncncc1Br (configuration not stated)	-4.79
Cc1noc(C2CCC3(CCN(C(=O)c4cc(C5CC5)on4)CC3)O2)n1 (configuration not stated)	-0.565
CCc1nc2n(n1)CC(NCc1nc3ccccc3nc1C)CC2 (configuration not stated)	1.64
CCNC(=O)N1CCc2ccc(NC(=O)NCC3CC3)cc21	-12.1

Compound	cytotoxicity at 70.5 h [%]
Cc1ncsc1CNC(=O)N(Cc1ccccc1)CC(C)(C)O	-3.17
CCc1nnc(CN(C)C(=O)CN2CC(c3ccccc3)CC2=O)o1 (configuration not stated)	-4.25
CS(=O)(=O)CCC(=O)NC1(c2cccc(C(F)(F)F)c2)CCC1	-24.7
CCS(=O)(=O)N1C[C@@H](OCc2cccnc2)[C@H]2OCCC[C@H]21	6.52
CN(C)C(=O)C1CCC2(CCNCC2)C1 (configuration not stated)	-2.3
O=C(c1ccc[nH]1)N1CCc2c(cccc2S(=O)(=O)N2CCOCC2)C1	29.8
CCC1CN(C(=O)c2ccccc2C(C)=O)CCN1C(C)C (configuration not stated)	-4.04
Cc1cn(CCn2ccnc2-c2sccc2C)nn1	-2.5
c1cnc(CC2CCN(c3cnccn3)CC2)cn1	-7.05
O=C(NCCNc1ncccn1)c1ccc(Br)cc1	-15.1
Cc1cnc(CNC(=O)[C@@H]2CC[C@@H]3[C@@H](CCN3Cc3ccco3)O2)cn1	-11.9
Cc1cnn(CC2CN(Cc3nc(C4CC4)no3)CCO2)c1 (configuration not stated)	-6.98
CCN1CCN(C(=O)c2nc(C)n(-c3ccccc3Cl)n2)CC1	7.74
CCc1cnc(N2C[C@H]3C[C@H](C(=O)NCC(C)C)[C@@H](C2)O3)nc1	2.56
CC(CN1CCCC1=O)NC(=O)NCc1ccccc1-n1cccn1 (configuration not stated)	-11.4
Cc1csc(N2CCN(C(=O)Cc3cccs3)CC2)n1	-2.84
COc1ccc2cc(NC(=O)CCNc3nc(C)cc(C)n3)cnc2c1	-24.1
COc1ccc(CCC2CCCN(C(=O)c3cnc(N)nc3C)C2)cc1 (configuration not stated)	-18.9
Cc1csc(CCNC(=O)C2CCCN(C3CCOCC3)C2)n1 (configuration not stated)	-11.1
c1cc2c(cc1-c1noc3c1CN(C1CCSC1)CC3)OCO2 (configuration not stated)	-12.7

From ChEMBL document CHEMBL3507680, “University of Dundee, Gates Library screen for HepG2 cell viability”
